Laboratory results reported in PMC12648285 (JACS Au, 2025).
One block for each compound: values may come before it.

Columns and labels:
TRKA = TRKA (Homo sapiens, UniProt P04629); assay: TRKA kinase biochemical assay
TRKB = TRKB (Homo sapiens, UniProt Q16620); assay: TRKB kinase biochemical assay
TRKC = TRKC (Homo sapiens, UniProt Q16288); assay: TRKC kinase biochemical assay
[1] = target: TRKA kinase domain (440-796) (Homo sapiens, UniProt P04629); assay: Intact protein mass spectrometry, covalent labelling of TRKA; assay type: binding; conditions: intact protein MS, 2 h incubation, 25 °C, compound/protein 10:1
TRKA (440-796) [2] = target: T1, TRKA (440-796) (Homo sapiens, UniProt P04629); assay: Site mapping using LC-MS/MS, TRKA+7; assay type: binding
TRKA (440-796) [3] = target: T1, TRKA (440-796); assay: Time-dependent intact protein mass; assay type: binding
[4] = test system: p-TRKA and p-AKT in KM12-Luc cells; assay: Western blot of TRKA activation and downstream signalling in KM12-Luc cells; assay type: cell-based; conditions: 6 h
GAC (73-598) = assay: Intact protein mass spectrometry, covalent modification of GAC; assay type: binding
A549 cells [5] = assay: Anti-proliferative assay, A549 cells; assay type: cell-based; conditions: 72 h
GAC = target: T2, GAC (Macaca mulatta, UniProt F7AIH5); assay: Recombinant GAC enzymatic assay; assay type: biochemical
T2 sequence (F7AIH5 73-598): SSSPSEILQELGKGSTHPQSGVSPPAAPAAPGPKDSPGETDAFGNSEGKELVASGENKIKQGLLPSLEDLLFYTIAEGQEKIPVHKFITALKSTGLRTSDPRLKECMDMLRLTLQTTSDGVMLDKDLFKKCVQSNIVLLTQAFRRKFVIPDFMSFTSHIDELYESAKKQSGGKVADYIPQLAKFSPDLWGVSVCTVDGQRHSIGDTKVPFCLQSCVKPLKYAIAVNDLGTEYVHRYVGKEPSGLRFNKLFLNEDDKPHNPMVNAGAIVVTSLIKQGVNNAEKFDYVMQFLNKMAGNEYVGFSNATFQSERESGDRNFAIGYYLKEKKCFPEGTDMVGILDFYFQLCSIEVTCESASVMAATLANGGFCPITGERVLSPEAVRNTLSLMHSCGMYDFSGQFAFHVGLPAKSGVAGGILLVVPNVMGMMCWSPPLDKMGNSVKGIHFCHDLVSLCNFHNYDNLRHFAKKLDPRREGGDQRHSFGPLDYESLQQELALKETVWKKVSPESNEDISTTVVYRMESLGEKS

A549 cells [6] = assay: Determination of reactive oxygen species; assay type: cell-based; conditions: 16 h, flow cytometry
A549 cells [7] = assay: Determination of intracellular glutamate and glutamine levels; assay type: cell-based; conditions: 16 h treatment
GAC^WT and GAC^K320A = assay: Western blot of acetylation of GAC WT and GAC K320A; assay type: biochemical; conditions: 45 min
[8] = time-dependent intact protein MS, TRKA

T1 sequence (P04629 440-796): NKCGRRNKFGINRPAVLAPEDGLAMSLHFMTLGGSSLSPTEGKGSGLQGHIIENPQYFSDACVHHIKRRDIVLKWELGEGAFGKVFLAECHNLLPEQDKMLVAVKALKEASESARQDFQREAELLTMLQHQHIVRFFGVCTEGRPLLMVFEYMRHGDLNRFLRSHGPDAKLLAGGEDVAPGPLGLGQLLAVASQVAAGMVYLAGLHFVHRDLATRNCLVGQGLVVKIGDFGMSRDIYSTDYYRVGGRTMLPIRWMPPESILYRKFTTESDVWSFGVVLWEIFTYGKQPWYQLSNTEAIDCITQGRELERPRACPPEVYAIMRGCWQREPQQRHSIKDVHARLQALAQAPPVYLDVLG
TRKB, sequence (Q16620 32-822): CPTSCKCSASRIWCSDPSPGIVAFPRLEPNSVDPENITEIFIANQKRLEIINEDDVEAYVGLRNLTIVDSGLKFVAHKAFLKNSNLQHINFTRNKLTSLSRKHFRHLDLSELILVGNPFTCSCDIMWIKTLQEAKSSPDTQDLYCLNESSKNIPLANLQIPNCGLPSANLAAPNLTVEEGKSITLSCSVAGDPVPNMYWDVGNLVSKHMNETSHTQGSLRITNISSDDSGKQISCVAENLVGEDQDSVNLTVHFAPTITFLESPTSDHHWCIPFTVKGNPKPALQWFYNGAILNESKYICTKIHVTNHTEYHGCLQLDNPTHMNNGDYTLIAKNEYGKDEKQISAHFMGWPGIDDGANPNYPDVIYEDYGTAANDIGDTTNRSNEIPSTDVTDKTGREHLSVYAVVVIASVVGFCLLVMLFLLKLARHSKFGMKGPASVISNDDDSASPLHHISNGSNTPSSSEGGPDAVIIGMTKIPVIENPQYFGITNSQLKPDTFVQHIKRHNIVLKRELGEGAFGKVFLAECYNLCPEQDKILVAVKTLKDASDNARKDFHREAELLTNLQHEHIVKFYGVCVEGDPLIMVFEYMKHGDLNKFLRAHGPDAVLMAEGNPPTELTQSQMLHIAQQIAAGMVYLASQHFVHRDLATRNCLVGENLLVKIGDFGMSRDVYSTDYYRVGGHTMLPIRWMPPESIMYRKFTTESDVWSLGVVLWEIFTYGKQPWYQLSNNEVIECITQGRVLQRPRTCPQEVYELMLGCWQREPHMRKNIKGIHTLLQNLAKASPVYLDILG
TRKA, sequence (P04629 33-796): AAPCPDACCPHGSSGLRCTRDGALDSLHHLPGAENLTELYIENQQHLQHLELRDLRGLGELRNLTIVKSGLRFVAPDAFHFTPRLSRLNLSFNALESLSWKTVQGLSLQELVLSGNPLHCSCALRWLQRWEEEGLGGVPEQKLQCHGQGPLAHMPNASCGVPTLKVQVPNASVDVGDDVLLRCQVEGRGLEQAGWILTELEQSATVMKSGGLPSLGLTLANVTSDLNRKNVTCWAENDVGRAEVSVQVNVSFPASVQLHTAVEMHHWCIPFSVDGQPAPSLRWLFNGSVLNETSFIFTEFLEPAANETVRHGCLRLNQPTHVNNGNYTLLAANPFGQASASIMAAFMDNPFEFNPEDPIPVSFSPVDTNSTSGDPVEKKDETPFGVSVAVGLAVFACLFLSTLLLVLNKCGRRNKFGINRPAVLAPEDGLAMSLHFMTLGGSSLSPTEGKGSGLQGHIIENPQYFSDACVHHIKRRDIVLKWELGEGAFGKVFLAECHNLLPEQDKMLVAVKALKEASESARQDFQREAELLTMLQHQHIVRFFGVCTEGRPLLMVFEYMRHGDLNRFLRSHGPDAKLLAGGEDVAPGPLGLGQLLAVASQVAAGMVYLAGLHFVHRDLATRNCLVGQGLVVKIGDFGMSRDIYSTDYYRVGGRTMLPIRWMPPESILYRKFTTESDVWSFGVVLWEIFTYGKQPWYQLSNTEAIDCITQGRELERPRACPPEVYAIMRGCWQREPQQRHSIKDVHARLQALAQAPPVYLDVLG
TRKC, sequence (Q16288 32-839): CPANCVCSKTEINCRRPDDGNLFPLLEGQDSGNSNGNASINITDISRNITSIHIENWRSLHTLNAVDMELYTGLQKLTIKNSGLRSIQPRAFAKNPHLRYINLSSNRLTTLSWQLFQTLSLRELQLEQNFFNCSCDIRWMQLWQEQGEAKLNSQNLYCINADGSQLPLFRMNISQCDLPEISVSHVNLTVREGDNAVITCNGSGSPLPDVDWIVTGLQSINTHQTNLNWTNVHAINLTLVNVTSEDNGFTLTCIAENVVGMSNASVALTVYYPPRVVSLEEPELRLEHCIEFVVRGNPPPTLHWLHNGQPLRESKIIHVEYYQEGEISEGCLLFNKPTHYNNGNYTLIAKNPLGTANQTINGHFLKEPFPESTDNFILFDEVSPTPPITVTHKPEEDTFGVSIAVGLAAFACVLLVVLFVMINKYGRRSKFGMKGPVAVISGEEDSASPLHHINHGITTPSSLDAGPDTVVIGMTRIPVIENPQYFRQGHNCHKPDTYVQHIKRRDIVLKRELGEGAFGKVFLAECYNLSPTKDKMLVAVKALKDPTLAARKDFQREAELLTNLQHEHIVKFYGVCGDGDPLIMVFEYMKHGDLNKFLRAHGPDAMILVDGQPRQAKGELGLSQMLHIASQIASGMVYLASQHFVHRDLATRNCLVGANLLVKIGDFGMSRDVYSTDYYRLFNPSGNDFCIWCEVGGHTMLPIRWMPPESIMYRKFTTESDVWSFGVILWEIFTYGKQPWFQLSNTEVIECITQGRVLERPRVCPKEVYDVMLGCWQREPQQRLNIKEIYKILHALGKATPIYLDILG
TRKA kinase domain (440-796), sequence (P04629 440-796): as the sequence (P04629 440-796) above

IC50 (TRKA): 11.5 nM
IC50 (TRKB): 1.04 nM
IC50 (TRKC): 1.9 nM
Total binding rate of TRKA modified by compound [1]: 99.2%
Covalent binding site identified in TRKA (TRKA (440-796) [2]): Lys544
Modification rate of Lys544 (TRKA (440-796) [2]; TRKA + compound, 25 °C, 2 h): 95%
Ki (TRKA (440-796) [3]): 800 nM
k inact (inactivation rate) (TRKA (440-796) [3]; [8]): 0.0578 min^–1
k inact/K I (TRKA (440-796) [3]; [8]): 1.20 × 10^3 M^–1·s^–1
Compound: C#Cc1cc(-c2cc(Nc3nc(N[C@@H](C)c4ccc(F)cn4)ncc3Cl)n[nH]2)ccc1C=O [Compound 7]
Phosphorylation of TRKA and downstream AKT [4]: efficiently suppress the phosphorylation of TRKA as well as its downstream AKT

Compound: C#Cc1c(C=O)cccc1CC(=O)Nc1nnc(N[C@@H]2CCN(c3cccnn3)C2)s1 [Compound 14]
Covalent modification of GAC by intact protein MS (GAC (73-598); 8 h, 25 °C): confirmed covalent modification of GAC
Labeling efficiency of GAC (GAC (73-598); intact protein MS, 8 h, 25 °C, theoretical maximum 50%): ~45%
Cellular activity (A549 antiproliferative) (A549 cells [5]): limited efficacy

Compound: C#Cc1cc(CC(=O)Nc2nnc(N[C@@H]3CCN(c4cccnn4)C3)s2)ccc1C=O [Compound 15]
GAC enzymatic inhibition compared to the reversible inhibitor 13 (GAC): significantly enhanced GAC enzymatic inhibition
Covalent modification of GAC by intact protein MS (GAC (73-598); 8 h, 25 °C): confirmed covalent modification of GAC
Cellular activity (A549 antiproliferative) (A549 cells [5]): limited efficacy

Compound: CC(=O)Oc1ccc(CC(=O)Nc2nnc(N[C@@H]3CCN(c4cccnn4)C3)s2)cc1C#N [Compound 16]
Total protein products displaying acetylation (GAC (73-598); MS of GAC-16 after 8 h incubation at 25 °C): 71.05%
Cellular activity (A549 antiproliferative) (A549 cells [5]): enhanced antiproliferative activities
Intracellular reactive oxygen species (ROS) level (A549 cells [6]): significantly increased
Glutamine-to-glutamate conversion (intracellular GLU/GLN ratio) (A549 cells [7]): marked reduction
Acetylation of wild-type vs Lys320 mutant GAC at low concentrations (GAC^WT and GAC^K320A; ≤2 μM): selectively acetylated wild-type GAC, with no detectable modification of the Lys320 mutant
Acetylation of wild-type vs Lys320 mutant GAC at higher concentrations (GAC^WT and GAC^K320A; ≥10 μM): emerging acetylation signals in the Lys320 mutant
